Columns and labels:
DPPH scavenging assay = conditions: for DPPH Radicals, % of Control: compounds at 100 µM, 30 min, absorbance 520 nm, mean ± SEM
Description: The compounds were dissolved in DMSO, and the solutions (120 µL) were dispensed into wells of a 96-well microplate. In all, 30 µL of the DPPH (Sigma-Aldrich, Steinheim, Germany) solution in MeOH (1.5 × 10^−4 M) was added to each well. The concentrations of the compounds in mixture were 10 and 100 µM. Pure DMSO was used as a control. The ascorbic acid was used as a positive control. The mixture was shaken and left to stand for 30 min, and the absorbance of the resulting solution was measured at 520 nm with a microplate reader MultiscanFC (ThermoLabsystems Inc., Beverly, MA, USA). The radical scavenging activity of all compounds at 100 µM was presented as a percent of the DMSO data.

CoCl2-treated H9c2 cells = experiment: Cardioprotective activity in CoCl2-mimic hypoxia; type: cell-based, rat; conditions: MTT
Description: The H9c2 cells were treated with a dH2O-solution of CoCl2 at a concentration of 500 µM for 2 h. Then, compounds at a concentration of 10 µM were added for 46 h. The viability of the H9c2 cells was measured by an MTT assay.

[1] = system: rat normal cardiomyocytes H9c2; experiment: Cell viability (MTT) assay, cytotoxic activity toward H9c2 cells; type: cell-based; conditions: 48 h
Description: (§1) The human cancer PC-3 cells were purchased from ATCC (Manassas, VA, USA). The rat cardiomyocytes H9c2 cells were kindly provided by Prof. Dr. Gunhild von Amsberg from Martini-Klinik Prostate Cancer Center, University Hospital Hamburg-Eppendorf, Hamburg, Germany.
(§2) The PC-3 and H9c2 cells were seeded at concentrations of 5 × 10^3 cell/well and 3 × 10^3 cell/well, respectively, and the experiments were started after 24 h. The compounds at concentrations up to 100 µM were added into the wells for 48 h, and the viability of the cells was measured by an MTT (3-(4,5-dimethylthiazol-2-yl)-2,5-diphenyltetrazolium bromide) assay, which was performed according to the manufacturer’s instructions (Sigma-Aldrich, Munich, Germany). All compounds were diisolved with DMSO so that the final concentration of DMSO in the cell culture was not more than 1%. Moreover, DMSO was used as a control.
(§3) The results were presented as a percent of the control data, and the concentration of the cell viability inhibition on 50% (IC50) was calculated.

[2] = system: human prostate cancer PC-3 cells; experiment: Cell viability (MTT) assay, cytotoxic activity toward PC-3 cells; type: cell-based; conditions: 48 h; for IC50: Homo sapiens, PC-3 cells; for decrease of PC-3 cell viability: concentration of 100 µM
Description: as §1, §2, §3

[3] = system: rotenone-treated H9c2 cells; experiment: Cardioprotective activity against rotenone-induced toxicity; type: cell-based, rat
Description: The H9c2 cells were treated with rotenone (0.1% DMSO solution) at a concentration of 10 µM for 1 h. Then, compounds at a concentration of 10 µM were added for 23 h. The viability of the H9c2 cells was measured by an MTT assay.

Row | Compound | DPPH Radicals, % of Control (DPPH scavenging assay) | decrease of viability of H9c2 cells by CoCl2 treatment (CoCl2-treated H9c2 cells; CoCl2 500 µM) [%] | IC50 [1] [µM] | IC50 [2] [µM] | decrease of PC-3 cell viability [2] | viability at 10 µM (CoCl2-treated H9c2 cells; Rattus norvegicus, H9c2, compound at 10 µM for 46 h after CoCl2 500 µM for 2 h, read-out: increase of viability of CoCl2-treated H9c2 cells) [%] | decrease of the amount of DPPH radical (DPPH scavenging assay; concentration of 100 µM) [%] | viability at 10 µM ([3]; Rattus norvegicus, H9c2, read-out: increase of viability of rotenone-treated H9c2 cells) [%] | decrease of viability of H9c2 cells by rotenone treatment ([3]; rotenone 10 µM, MTT) [%]
1 | O=C1O[C@H]([C@@H](O)CO)C(O)=C1O [Ascorbic acid, ascorbic acid, reference compound] | 10.5 ± 3.2 % of Control |  |  |  |  |  |  |  | 
2 | [Cl-].[Cl-].[Co+2] [CoCl2, cobalt chloride (II), reference compound] |  | 54.1 |  |  |  |  |  |  | 
3 | COC1=C(OC)[C@@H](O)[C@](C)(O)[C@@H](C)C1=O [Compound 1, lopouzanone A] | 93.8 ± 0.5 % of Control |  | > 100 | > 100 | 27–32% |  |  |  | 
4 | COC1=C(OC)C(O)C(C)(O)C(C)C1=O (centres unmarked) [Compound 2, lopouzanone B] | 100.2 ± 1.0 % of Control |  | > 100 | > 100 | 27–32% |  |  |  | 
5 | COC1=C(OC)C(=O)C(C)C(C)C1=O (centres unmarked) [Compound 3, gliorosein] | 86.1 ± 1.8 % of Control |  | > 100 | 58.9 ± 1.5 |  | 23.5 | 13.9 | 16.6 | 
6 | C[C@@H]1C/C=C/C(=O)C/C=C/[C@H](O)CC(=O)O1 [Compound 4, balticolid] | 98.6 ± 3.4 % of Control |  | > 100 | 38.9 ± 1.9 |  |  |  |  | 
7 | C[C@@H]1C/C=C/[C@@H](O)C/C=C/[C@@H](O)CC(=O)O1 [Compound 5, dendrodolide G] | 98.9 ± 1.4 % of Control |  | > 100 | > 100 | 27–32% |  |  |  | 
8 | C/C=C/C=C/C=C/[C@@H]1C[C@@H](O)[C@H](O)[C@H](O)[C@@H]1CO [Compound 8, dendrodochol B] | 99.4 ± 3.3 % of Control |  | > 100 | > 100 | 27–32% |  |  |  | 
9 | C/C=C/C=C/C=C/[C@@H]1C[C@@H](OC(C)=O)[C@H](O)[C@H](O)[C@@H]1CO [Compound 9, 1-O-acetyl dendrodochol B] | 102.7 ± 1.8 % of Control |  | > 100 | > 100 | 27–32% |  |  |  | 
10 | C=C(C)[C@H]1Cc2c(ccc3c2O[C@@H]2COc4cc(OC)c(OC)cc4[C@@H]2C3=O)O1 [rotenone, reference compound] |  |  |  |  |  |  |  |  | 32.1

Source: publication PMC9655818, “Cytoprotective Polyketides from Sponge-Derived Fungus Lopadostoma pouzarii” (Molecules, 2022)
